Experimental data as given in ChEMBL document CHEMBL4346729, “The discovery of novel 3-aryl-indazole derivatives as peripherally restricted pan-Trk inhibitors for the treatment of pain” (Bioorg Med Chem Lett, 2019).
Calls of active or inactive are those of the source. The rule behind the calls is not given here.

Assays:
[1] = Protein binding in Sprague-Dawley rat brain; format: ADME, tissue-based; conditions: read-out: PB (converted)
[2] = Unbound drug level in brain of CFA induced Sprague-Dawley rat at 4 mg/kg, po after 1 hr; format: ADME, organism-based; conditions: in vivo, BLD = below limit of detection
[3] = molecular target: Aurora kinase A (Homo sapiens) (UniProt O14965); assay: Inhibition of recombinant human full length N-terminal GST/His6-tagged Aurora-A (M1 to S403) expressed in Sf9 insect cells at 20 nM using phosphatidylserine as substrate incubated for 60 mins in presence of [33P]-ATP by scintillation counting method
[4] = tested on: Rattus norvegicus; assay: Antinociceptive activity in CFA induced thermal hypersensitivity Sprague-Dawley rat model assessed as increase in paw withdrawal latency at 0.8 mg/kg, po after 1 hr; format: functional, organism-based
[5] = molecular target: Tyrosine-protein kinase BTK (Homo sapiens) (UniProt Q06187); assay: Inhibition of recombinant human full length N-terminal GST/His6-tagged BTK (M1 to S659) expressed in Sf9 insect cells at 20 nM using phosphatidylserine as substrate incubated for 60 mins in presence of [33P]-ATP by scintillation counting method
[6] = Toxicity in CFA induced Sprague-Dawley rat assessed as increase in weight gain at 100 mg/kg, po and measured up to 3 days; format: organism-based; conditions: in vivo, 72 h
[7] = Unbound drug level in brain of CFA induced Sprague-Dawley rat at 0.8 mg/kg, po after 1 hr; format: ADME, organism-based; conditions: in vivo, BLD = below limit of detection
[8] = molecular target: Protein kinase C theta type (Homo sapiens) (UniProt Q04759); assay: Inhibition of recombinant human full length N-terminal GST and C-terminal His6-tagged PKC-theta (M1 to S706) expressed in Sf9 insect cells at 20 nM using phosphatidylserine as substrate incubated for 60 mins in presence of [33P]-ATP by scintillation counting method
[9] = molecular target: 5'-AMP-activated protein kinase catalytic subunit alpha-1 (Homo sapiens) (UniProt Q13131); assay: Inhibition of recombinant human full length N-terminal GST/His6-tagged AMPKalpha1 (M1 to Q550) expressed in Sf9 insect cells at 20 nM using phosphatidylserine as substrate incubated for 60 mins in presence of [33P]-ATP by scintillation counting method
[10] = molecular target: Mitogen-activated protein kinase 3 (Homo sapiens) (UniProt P27361); assay: Inhibition of recombinant human full length N-terminal GST/His6-tagged ERK1 (M1 to P379) expressed in Escherichia coli at 20 nM using phosphatidylserine as substrate incubated for 60 mins in presence of [33P]-ATP by scintillation counting method
[11] = molecular target: Serine/threonine-protein kinase pim-2 (Homo sapiens) (UniProt Q9P1W9); assay: Inhibition of recombinant human full length N-terminal GST/His6-tagged PIM2 (M1 to P311) expressed in baculovirus infected Sf9 insect cells at 20 nM using phosphatidylserine as substrate incubated for 60 mins in presence of [33P]-ATP by scintillation counting method
[12] = molecular target: Ribosomal protein S6 kinase alpha-5 (Homo sapiens) (UniProt O75582); assay: Inhibition of RPS6KA5 (unknown origin) at 20 nM using phosphatidylserine as substrate incubated for 60 mins in presence of [33P]-ATP by scintillation counting method
[13] = molecular target: BDNF/NT-3 growth factors receptor (Homo sapiens, UniProt Q16620); assay: Inhibition of human GST-tagged TRKB (456 to 822) expressed in baculovirus expression system using TK-biotin peptide as substrate incubated for 45 min by TR-FRET assay
[14] = molecular target: Dual specificity tyrosine-phosphorylation-regulated kinase 1A (Homo sapiens) (UniProt Q13627); assay: Inhibition of DYRK1A (unknown origin) at 20 nM using phosphatidylserine as substrate incubated for 60 mins in presence of [33P]-ATP by scintillation counting method
[15] = molecular target: Insulin receptor (Homo sapiens) (UniProt P06213); assay: Inhibition of recombinant human N-terminal GST/His6-tagged INS-R C-terminal (G989 to S1382) expressed in Sf9 insect cells at 20 nM using phosphatidylserine as substrate incubated for 60 mins in presence of [33P]-ATP by scintillation counting method
[16] = tested on: Rattus norvegicus; assay: Antinociceptive activity in CFA induced thermal hypersensitivity Sprague-Dawley rat model assessed as increase in paw withdrawal latency at 20 mg/kg, po after 1 hr; format: functional, organism-based
[17] = molecular target: Protein kinase C beta type (Homo sapiens) (UniProt P05771); assay: Inhibition of recombinant human full length N-terminal GST/His6-tagged PKC-beta2 (M1 to S673) expressed in Sf9 insect cells at 20 nM using phosphatidylserine as substrate incubated for 60 mins in presence of [33P]-ATP by scintillation counting method
[18] = Cmax in Sprague-Dawley rat at 5 mg/kg, po; format: ADME, organism-based; set-up: dose 5 mg/kg, route oral; conditions: in vivo
[19] = Clearance in Sprague-Dawley rat at 1 mg/kg, iv; format: ADME, organism-based; conditions: in vivo
[20] = molecular target: Casein kinase I isoform delta (Homo sapiens) (UniProt P48730); assay: Inhibition of CK1-delta (unknown origin) at 20 nM using phosphatidylserine as substrate incubated for 60 mins in presence of [33P]-ATP by scintillation counting method
[21] = molecular target: Vascular endothelial growth factor receptor 2 (Homo sapiens) (UniProt P35968); assay: Inhibition of recombinant human N-terminal GST-tagged VEGF-R2 C-terminal (G443 to G796) expressed in Sf9 insect cells at 20 nM using phosphatidylserine as substrate incubated for 60 mins in presence of [33P]-ATP by scintillation counting method
[22] = tested on: Rattus norvegicus; assay: Unbound drug level in plasma of CFA induced Sprague-Dawley rat at 20 mg/kg, po after 1 hr; format: ADME, organism-based; conditions: in vivo
[23] = molecular target: Tyrosine-protein kinase JAK1 (Homo sapiens) (UniProt P23458); assay: Inhibition of recombinant human N-terminal GST/His6-tagged JAK1 wt (L583 to K1154) expressed in Sf9 insect cells at 20 nM using phosphatidylserine as substrate incubated for 60 mins in presence of [33P]-ATP by scintillation counting method
[24] = molecular target: Serine/threonine-protein kinase MARK1 (Homo sapiens) (UniProt Q9P0L2); assay: Inhibition of recombinant human full length N-terminal GST/His6-tagged MARK1 (M1 to L780) expressed in Sf9 insect cells at 20 nM using phosphatidylserine as substrate incubated for 60 mins in presence of [33P]-ATP by scintillation counting method
[25] = tested on: Rattus norvegicus; assay: Unbound drug level in plasma of CFA induced Sprague-Dawley rat at 4 mg/kg, po after 1 hr; format: ADME, organism-based; conditions: in vivo
[26] = molecular target: RAC-alpha serine/threonine-protein kinase (Homo sapiens) (UniProt P31749); assay: Inhibition of recombinant human N-terminal GST/His6-tagged and C-terminal His6-tagged AKT1(V106 to A480) expressed in Sf9 insect cells at 20 nM using phosphatidylserine as substrate incubated for 60 mins in presence of [33P]-ATP by scintillation counting method
[27] = molecular target: Casein kinase II subunit alpha (Homo sapiens) (UniProt P68400); assay: Inhibition of recombinant human full length N-terminal GST and C-terminal His6-tagged CK2-alpha (M1 to Q391) expressed in Sf9 insect cells at 20 nM using phosphatidylserine as substrate incubated for 60 mins in presence of [33P]-ATP by scintillation counting method

Sequence of Serine/threonine-protein kinase MARK1 (Homo sapiens) (Q9P0L2 whole entry, looked up): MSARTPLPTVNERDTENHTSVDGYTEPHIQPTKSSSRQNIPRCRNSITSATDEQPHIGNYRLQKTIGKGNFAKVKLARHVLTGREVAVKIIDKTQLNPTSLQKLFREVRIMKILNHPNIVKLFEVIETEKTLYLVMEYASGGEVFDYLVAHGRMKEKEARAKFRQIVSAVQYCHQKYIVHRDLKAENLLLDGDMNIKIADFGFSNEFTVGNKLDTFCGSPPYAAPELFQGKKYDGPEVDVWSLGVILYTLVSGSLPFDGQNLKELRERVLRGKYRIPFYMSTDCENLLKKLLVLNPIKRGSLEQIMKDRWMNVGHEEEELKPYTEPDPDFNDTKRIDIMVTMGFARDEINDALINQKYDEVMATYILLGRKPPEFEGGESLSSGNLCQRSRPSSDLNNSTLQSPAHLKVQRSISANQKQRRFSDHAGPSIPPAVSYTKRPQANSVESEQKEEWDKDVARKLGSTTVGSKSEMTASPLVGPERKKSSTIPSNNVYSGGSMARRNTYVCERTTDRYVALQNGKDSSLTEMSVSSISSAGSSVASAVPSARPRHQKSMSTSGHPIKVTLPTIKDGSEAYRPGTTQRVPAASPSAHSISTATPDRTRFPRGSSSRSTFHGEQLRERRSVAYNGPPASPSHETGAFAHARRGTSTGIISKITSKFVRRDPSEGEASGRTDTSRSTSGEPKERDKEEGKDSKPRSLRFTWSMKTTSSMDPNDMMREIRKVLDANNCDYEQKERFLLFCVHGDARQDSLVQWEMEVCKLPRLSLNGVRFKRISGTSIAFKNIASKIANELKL
Sequence of Protein kinase C beta type (Homo sapiens) (P05771 2-671 limits assumed): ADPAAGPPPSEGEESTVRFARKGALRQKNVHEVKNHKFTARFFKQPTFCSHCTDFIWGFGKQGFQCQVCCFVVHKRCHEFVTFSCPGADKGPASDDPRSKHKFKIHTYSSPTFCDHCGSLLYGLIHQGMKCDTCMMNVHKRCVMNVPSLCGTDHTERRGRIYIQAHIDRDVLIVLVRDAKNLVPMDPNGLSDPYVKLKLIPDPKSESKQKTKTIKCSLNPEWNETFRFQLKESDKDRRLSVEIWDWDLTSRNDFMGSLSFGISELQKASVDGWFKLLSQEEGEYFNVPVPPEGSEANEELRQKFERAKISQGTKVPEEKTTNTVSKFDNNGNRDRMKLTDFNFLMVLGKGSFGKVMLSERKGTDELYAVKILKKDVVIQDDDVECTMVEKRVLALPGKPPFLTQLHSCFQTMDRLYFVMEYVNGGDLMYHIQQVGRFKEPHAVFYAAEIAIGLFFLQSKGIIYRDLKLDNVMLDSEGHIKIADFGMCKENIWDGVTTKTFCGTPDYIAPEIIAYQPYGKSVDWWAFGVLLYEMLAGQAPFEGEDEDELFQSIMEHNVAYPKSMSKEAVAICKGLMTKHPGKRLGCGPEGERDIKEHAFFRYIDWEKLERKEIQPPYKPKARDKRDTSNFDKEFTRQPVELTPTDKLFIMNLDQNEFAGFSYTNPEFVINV
Sequence of Ribosomal protein S6 kinase alpha-5 (Homo sapiens) (O75582 whole entry, looked up): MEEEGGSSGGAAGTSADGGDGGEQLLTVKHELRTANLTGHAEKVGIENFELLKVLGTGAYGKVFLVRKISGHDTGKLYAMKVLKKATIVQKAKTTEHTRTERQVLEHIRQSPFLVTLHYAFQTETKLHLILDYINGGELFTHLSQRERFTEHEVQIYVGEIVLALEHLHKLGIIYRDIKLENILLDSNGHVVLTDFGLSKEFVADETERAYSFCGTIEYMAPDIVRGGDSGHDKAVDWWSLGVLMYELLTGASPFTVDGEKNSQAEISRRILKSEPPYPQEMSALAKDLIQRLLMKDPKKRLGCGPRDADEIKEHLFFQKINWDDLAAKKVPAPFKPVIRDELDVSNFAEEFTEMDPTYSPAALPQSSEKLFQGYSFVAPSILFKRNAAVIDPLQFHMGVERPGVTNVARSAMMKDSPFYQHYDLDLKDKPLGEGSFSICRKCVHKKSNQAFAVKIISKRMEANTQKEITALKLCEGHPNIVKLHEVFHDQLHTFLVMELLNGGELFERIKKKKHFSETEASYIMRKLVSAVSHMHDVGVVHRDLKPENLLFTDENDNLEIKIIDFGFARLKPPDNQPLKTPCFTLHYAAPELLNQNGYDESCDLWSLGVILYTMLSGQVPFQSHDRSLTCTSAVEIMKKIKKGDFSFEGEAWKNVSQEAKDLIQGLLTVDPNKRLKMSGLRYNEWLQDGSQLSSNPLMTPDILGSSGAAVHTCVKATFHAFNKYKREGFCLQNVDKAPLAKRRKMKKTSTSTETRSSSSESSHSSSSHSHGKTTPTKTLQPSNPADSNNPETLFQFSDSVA
Sequence of Insulin receptor (Homo sapiens) (P06213 28-758 limits assumed): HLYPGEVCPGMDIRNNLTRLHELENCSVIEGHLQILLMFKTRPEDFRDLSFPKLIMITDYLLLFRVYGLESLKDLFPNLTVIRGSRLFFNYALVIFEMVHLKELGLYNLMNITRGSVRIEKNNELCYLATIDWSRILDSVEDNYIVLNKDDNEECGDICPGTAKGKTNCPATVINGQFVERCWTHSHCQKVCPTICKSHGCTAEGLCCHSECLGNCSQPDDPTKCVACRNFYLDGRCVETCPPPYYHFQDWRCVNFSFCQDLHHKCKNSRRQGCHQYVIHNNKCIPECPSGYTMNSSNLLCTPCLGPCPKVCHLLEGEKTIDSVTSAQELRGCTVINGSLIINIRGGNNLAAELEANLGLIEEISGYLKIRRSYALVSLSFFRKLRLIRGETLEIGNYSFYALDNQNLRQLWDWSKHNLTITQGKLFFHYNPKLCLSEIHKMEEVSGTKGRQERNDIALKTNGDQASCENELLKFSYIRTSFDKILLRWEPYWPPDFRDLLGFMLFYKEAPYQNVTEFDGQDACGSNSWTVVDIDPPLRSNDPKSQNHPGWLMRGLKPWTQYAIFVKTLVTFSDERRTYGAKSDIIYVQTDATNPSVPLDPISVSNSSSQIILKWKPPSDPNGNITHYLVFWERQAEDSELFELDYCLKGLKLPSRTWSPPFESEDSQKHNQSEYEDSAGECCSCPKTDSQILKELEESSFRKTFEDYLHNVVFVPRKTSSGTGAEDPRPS
Sequence of Insulin receptor (Homo sapiens) (P06213 763-1382 limits assumed): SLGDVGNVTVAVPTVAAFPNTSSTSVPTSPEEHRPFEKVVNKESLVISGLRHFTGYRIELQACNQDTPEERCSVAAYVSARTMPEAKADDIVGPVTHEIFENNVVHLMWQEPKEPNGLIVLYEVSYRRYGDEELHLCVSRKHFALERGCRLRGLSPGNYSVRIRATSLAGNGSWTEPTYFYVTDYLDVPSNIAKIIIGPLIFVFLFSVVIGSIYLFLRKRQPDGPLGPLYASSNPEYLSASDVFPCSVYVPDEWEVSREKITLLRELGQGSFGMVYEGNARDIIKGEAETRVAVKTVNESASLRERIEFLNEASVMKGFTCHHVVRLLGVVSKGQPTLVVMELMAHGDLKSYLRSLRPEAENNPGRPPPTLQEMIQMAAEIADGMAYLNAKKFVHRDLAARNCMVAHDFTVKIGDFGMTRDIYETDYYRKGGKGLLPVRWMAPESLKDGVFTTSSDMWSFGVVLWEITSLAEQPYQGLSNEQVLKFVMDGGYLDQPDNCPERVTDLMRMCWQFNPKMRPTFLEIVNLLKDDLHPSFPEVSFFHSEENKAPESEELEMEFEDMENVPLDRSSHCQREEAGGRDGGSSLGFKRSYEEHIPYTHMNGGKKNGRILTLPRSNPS
Sequence of Casein kinase I isoform delta (Homo sapiens) (P48730 whole entry, looked up, canonical isoform): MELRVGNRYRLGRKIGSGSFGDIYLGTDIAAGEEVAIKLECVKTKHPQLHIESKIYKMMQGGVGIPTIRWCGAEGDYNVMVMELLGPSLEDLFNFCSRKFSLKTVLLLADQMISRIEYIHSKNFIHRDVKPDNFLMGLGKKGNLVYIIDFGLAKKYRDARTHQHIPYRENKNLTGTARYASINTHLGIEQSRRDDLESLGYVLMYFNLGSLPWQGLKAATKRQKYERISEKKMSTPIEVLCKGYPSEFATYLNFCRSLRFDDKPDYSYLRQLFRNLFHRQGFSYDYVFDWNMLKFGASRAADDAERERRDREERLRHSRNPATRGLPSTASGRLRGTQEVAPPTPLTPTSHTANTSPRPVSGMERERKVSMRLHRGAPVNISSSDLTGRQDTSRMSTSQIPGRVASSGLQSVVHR
Sequence of Mitogen-activated protein kinase 3 (Homo sapiens) (P27361 whole entry): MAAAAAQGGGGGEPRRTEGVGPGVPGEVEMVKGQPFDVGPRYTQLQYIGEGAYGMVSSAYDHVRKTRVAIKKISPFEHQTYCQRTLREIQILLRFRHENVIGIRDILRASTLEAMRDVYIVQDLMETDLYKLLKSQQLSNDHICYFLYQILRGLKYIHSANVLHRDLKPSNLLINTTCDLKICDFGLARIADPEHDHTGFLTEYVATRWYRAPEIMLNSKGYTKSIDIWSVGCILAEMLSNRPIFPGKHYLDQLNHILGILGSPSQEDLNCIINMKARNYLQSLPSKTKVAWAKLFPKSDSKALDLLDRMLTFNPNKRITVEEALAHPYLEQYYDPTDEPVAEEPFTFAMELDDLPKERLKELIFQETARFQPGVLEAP
Sequence of Serine/threonine-protein kinase pim-2 (Homo sapiens) (Q9P1W9 whole entry, looked up): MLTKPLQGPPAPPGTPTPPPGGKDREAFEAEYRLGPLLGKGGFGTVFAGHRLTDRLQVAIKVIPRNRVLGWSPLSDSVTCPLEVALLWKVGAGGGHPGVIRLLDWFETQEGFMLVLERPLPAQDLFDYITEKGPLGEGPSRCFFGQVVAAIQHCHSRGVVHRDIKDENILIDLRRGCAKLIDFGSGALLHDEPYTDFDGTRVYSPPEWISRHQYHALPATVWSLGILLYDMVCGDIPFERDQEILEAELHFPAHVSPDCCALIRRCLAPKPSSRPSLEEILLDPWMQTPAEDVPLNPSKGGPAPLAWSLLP

fraction unbound [1]: 0.038
Drug uptake(free) [2]: Bld
inhibition [3]: -7%
inhibition [5]: -6%
Drug uptake(free) [7]: Bld
inhibition [8]: -2%
inhibition [9]: -9%
inhibition [10]: -9%
inhibition [11]: -1%
inhibition [12]: 5%
IC50 [13]: 0.2 nM
inhibition [14]: -7%
inhibition [15]: -7%
inhibition [17]: 5%
Cmax [18]: 161 nM
clearance [19]: 73.3 mL/min/kg
inhibition [20]: 5%
inhibition [21]: 4%
Cp(f) [22]: 70.9 nM
inhibition [23]: -5%
inhibition [24]: -8%
Cp(f) [25]: 14.9 nM
inhibition [26]: 6%
inhibition [27]: 7%
SMILES: Cn1cc(-c2n[nH]c3ccc(NCc4cc(F)ccc4S(C)(=O)=O)cc23)cn1
Activity [4]: inactive
Activity [6]: Toxic
Activity [16]: Active
